Reference: the supplement of paper PMC10307832

Legend:
Assay in all cases: relative viability (nuclei count vs DMSO), 5 days (fraction); higher = more cells survive
[1] = test system: BEN
In short: (§1)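 Lung cancer cell lines in 1536-well plates got either a single drug or a fixed anchor-drug dose together with five library-drug doses (not always all listed) in √10 steps, by pin tool, on the day after seeding. Nuclei were counted after 5 days, and relative viability is the treated-to-vehicle ratio of nuclei counts. Values are medians of duplicate plates.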

[2] = test system: CAL-12T
In short: as §1

[3] = test system: COR-L23
In short: as §1

[4] = test system: HCC-44
In short: as §1

[5] = test system: LU99A
In short: as §1

[6] = test system: LXF-289
In short: as §1

[7] = test system: NCI-H1355
In short: as §1

[8] = test system: NCI-H1437
In short: as §1

[9] = test system: NCI-H1650
In short: as §1

[10] = test system: NCI-H1651
In short: as §1

[11] = test system: NCI-H1666
In short: as §1

[12] = test system: NCI-H1755
In short: as §1

[13] = test system: NCI-H1792
In short: as §1

[14] = test system: NCI-H1993
In short: as §1

[15] = test system: NCI-H2085
In short: as §1

[16] = test system: NCI-H2087
In short: as §1

[17] = test system: NCI-H2170
In short: as §1

[18] = test system: NCI-H460
In short: as §1

[19] = test system: NCI-H520
In short: as §1

[20] = test system: PC-14
In short: as §1

[21] = test system: SK-MES-1
In short: as §1

## CCNC(=O)c1noc(-c2cc(C(C)C)c(O)cc2O)c1-c1ccc(CN2CCOCC2)cc1 [Luminespib] + CC1(C)CCC(c2ccc(Cl)cc2)=C(CN2CCN(c3ccc(C(=O)NS(=O)(=O)c4ccc(N[C@H](CCN5CCOCC5)CSc5ccccc5)c(S(=O)(=O)C(F)(F)F)c4)cc3)CC2)C1 [Navitoclax] (partner 0.5 µM)
[1]; first compound 0.002 µM
  relative viability: 0.0714
[1]; first compound 0.006325 µM
  relative viability: 0.0602
[1]; first compound 0.02 µM
  relative viability: 0.0673
[1]; first compound 0.06325 µM
  relative viability: 0.0655
[1]; first compound 0.2 µM
  relative viability: 0.0846
[2]; first compound 0.002 µM
  relative viability: 1.47
[2]; first compound 0.006325 µM
  relative viability: 1.23
[2]; first compound 0.02 µM
  relative viability: 0.491
[2]; first compound 0.06325 µM
  relative viability: 0.106
[2]; first compound 0.2 µM
  relative viability: 0.116
[3]; first compound 0.002 µM
  relative viability: 1.14
[3]; first compound 0.006325 µM
  relative viability: 0.885
[3]; first compound 0.02 µM
  relative viability: 1
[3]; first compound 0.06325 µM
  relative viability: 0.0758
[3]; first compound 0.2 µM
  relative viability: 0.0617
[4]; first compound 0.002 µM
  relative viability: 0.943
[4]; first compound 0.006325 µM
  relative viability: 0.99
[4]; first compound 0.02 µM
  relative viability: 1.18
[4]; first compound 0.06325 µM
  relative viability: 0.957
[4]; first compound 0.2 µM
  relative viability: 0.129
[5]; first compound 0.002 µM
  relative viability: 0.878
[5]; first compound 0.006325 µM
  relative viability: 0.815
[5]; first compound 0.02 µM
  relative viability: 0.496
[5]; first compound 0.06325 µM
  relative viability: 0.253
[5]; first compound 0.2 µM
  relative viability: 0.119
[6]; first compound 0.002 µM
  relative viability: 0.951
[6]; first compound 0.006325 µM
  relative viability: 0.937
[6]; first compound 0.02 µM
  relative viability: 1.05
[6]; first compound 0.06325 µM
  relative viability: 0.851
[6]; first compound 0.2 µM
  relative viability: 0.302
[7]; first compound 0.002 µM
  relative viability: 0.983
[7]; first compound 0.006325 µM
  relative viability: 0.896
[7]; first compound 0.02 µM
  relative viability: 0.473
[7]; first compound 0.06325 µM
  relative viability: 0.987
[7]; first compound 0.2 µM
  relative viability: 0.968
[8]; first compound 0.002 µM
  relative viability: 1.06
[8]; first compound 0.006325 µM
  relative viability: 1.07
[8]; first compound 0.02 µM
  relative viability: 1.16
[8]; first compound 0.06325 µM
  relative viability: 0.318
[8]; first compound 0.2 µM
  relative viability: 0.128
[9]; first compound 0.002 µM
  relative viability: 1.31
[9]; first compound 0.006325 µM
  relative viability: 1.11
[9]; first compound 0.02 µM
  relative viability: 0.318
[9]; first compound 0.06325 µM
  relative viability: 0.159
[9]; first compound 0.2 µM
  relative viability: 0.144
[10]; first compound 0.002 µM
  relative viability: 0.967
[10]; first compound 0.006325 µM
  relative viability: 1.1
[10]; first compound 0.02 µM
  relative viability: 1.08
[10]; first compound 0.06325 µM
  relative viability: 0.18
[10]; first compound 0.2 µM
  relative viability: 0.144
[11]; first compound 0.002 µM
  relative viability: 0.807
[11]; first compound 0.006325 µM
  relative viability: 0.97
[11]; first compound 0.02 µM
  relative viability: 1.29
[11]; first compound 0.06325 µM
  relative viability: 0.913
[11]; first compound 0.2 µM
  relative viability: 0.554
[12]; first compound 0.002 µM
  relative viability: 0.981
[12]; first compound 0.006325 µM
  relative viability: 0.959
[12]; first compound 0.02 µM
  relative viability: 0.973
[12]; first compound 0.06325 µM
  relative viability: 0.971
[12]; first compound 0.2 µM
  relative viability: 0.933
[13]; first compound 0.002 µM
  relative viability: 0.535
[13]; first compound 0.006325 µM
  relative viability: 0.497
[13]; first compound 0.02 µM
  relative viability: 0.539
[13]; first compound 0.06325 µM
  relative viability: 0.32
[13]; first compound 0.2 µM
  relative viability: 0.216
[14]; first compound 0.002 µM
  relative viability: 0.937
[14]; first compound 0.006325 µM
  relative viability: 1.02
[14]; first compound 0.02 µM
  relative viability: 0.762
[14]; first compound 0.06325 µM
  relative viability: 0.644
[14]; first compound 0.2 µM
  relative viability: 0.466
[15]; first compound 0.002 µM
  relative viability: 1.15
[15]; first compound 0.006325 µM
  relative viability: 1.13
[15]; first compound 0.02 µM
  relative viability: 1.14
[15]; first compound 0.06325 µM
  relative viability: 0.677
[15]; first compound 0.2 µM
  relative viability: 0.503
[16]; first compound 0.002 µM
  relative viability: 1.03
[16]; first compound 0.006325 µM
  relative viability: 0.871
[16]; first compound 0.02 µM
  relative viability: 0.911
[16]; first compound 0.06325 µM
  relative viability: 0.202
[16]; first compound 0.2 µM
  relative viability: 0.202
[17]; first compound 0.002 µM
  relative viability: 0.646
[17]; first compound 0.006325 µM
  relative viability: 0.596
[17]; first compound 0.02 µM
  relative viability: 0.293
[17]; first compound 0.06325 µM
  relative viability: 0.581
[17]; first compound 0.2 µM
  relative viability: 0.451
[18]; first compound 0.002 µM
  relative viability: 1.23
[18]; first compound 0.006325 µM
  relative viability: 1.01
[18]; first compound 0.02 µM
  relative viability: 0.0537
[18]; first compound 0.06325 µM
  relative viability: 0.0176
[18]; first compound 0.2 µM
  relative viability: 0.0134
[19]; first compound 0.002 µM
  relative viability: 1.01
[19]; first compound 0.006325 µM
  relative viability: 1
[19]; first compound 0.02 µM
  relative viability: 1.1
[19]; first compound 0.06325 µM
  relative viability: 0.177
[19]; first compound 0.2 µM
  relative viability: 0.167
[20]; first compound 0.002 µM
  relative viability: 0.996
[20]; first compound 0.006325 µM
  relative viability: 0.945
[20]; first compound 0.02 µM
  relative viability: 1.17
[20]; first compound 0.06325 µM
  relative viability: 0.0977
[20]; first compound 0.2 µM
  relative viability: 0.128
[21]; first compound 0.002 µM
  relative viability: 1.27
[21]; first compound 0.006325 µM
  relative viability: 1.24
[21]; first compound 0.02 µM
  relative viability: 1.28
[21]; first compound 0.06325 µM
  relative viability: 0.149
[21]; first compound 0.2 µM
  relative viability: 0.131
